These results are taken from article PMC8067766 (International Journal of Molecular Sciences, 2021).

Where a SMILES comes first, the peptide text is derived from it.

Series [1] can be described thus: Peptide stability in human plasma (TCA assay). The class given is in vitro ADME. The note with it: human plasma (EDTA), 37 °C, 300 rpm, TCA 3% precipitation, RP-HPLC UV 223 nm, peak area relative to 0 min, at least triplicates, read-out: peptide loss in human plasma relative to the initial concentration. How it is done: Peptide stability tests were performed according to a TCA stability assay based on the method used by Nguyen et al.. Peptides were dissolved in water, mixed with human plasma* to a final concentration of 1.0 mg/mL, and incubated at 37 °C with agitation (300 rpm, Thermomixer, Eppendorf AG, Hamburg, Germany). After 0, 1, 2, 3, 6 and 24 h, 80 μL of the solution was taken and mixed with 15% TCA to obtain a final concentration of 3% (v/v). The samples were incubated in ice for 10 min and centrifuged for 10 min (12,000 rpm, Microfuge 16, Beckman Coulter, Brea, CA, USA). Supernatants were analyzed by RP-HPLC on column using a linear gradient of acetonitrile (5–100% over 15 min) with detection at 223 nm. Peptides were quantified by their peak areas relative to the initial peak areas (0 min). All stability tests were performed at least in triplicates. As control samples peptides dissolved only in water under the same conditions were used. To additionally assess the changes in the incubated samples (peptide degradation) mass spectrometry analysis was used. LC-MS experiments were performed using ESI-IT-TOF (Shimadzu, Kyoto, Japan).
* Blood was collected from healthy anonymous donors and EDTA was then used as an anticoagulant. The procedure was approved by the Independent Bioethics Commission for Research of the Medical University of Gdańsk (NKBBN/387/2014).

The subject of series [2] is 46BR.1N fibroblasts. In words: Collagen synthesis analysis (Direct red 80). The note with it: 25.0 µg/mL; 6 days; Direct red 80, 550 nm, percentage of control. The class given is cell-based, human. How it is done: 46BR.1N fibroblasts were seeded into 96-well plates, at a density of 3000 cells per well, in DMEM medium supplemented with 10% FBS. After 24 h, when the cells had attached to the plate, the medium was exchanged for a fresh one, and the cells were stimulated with appropriate concentrations of the tested peptides. Half of the medium was exchanged every two days, with additional stimulation during every medium exchange, and the cells were cultured in the presence of the peptides for six days. The medium was then removed and the cells were washed with PBS, fixed for 1 h in Bouin’s fluid (15 mL of saturated picric acid, 5 mL of 37% formaldehyde and 1 mL of acetic acid), washed in running tap water for 15 min and air dried. The cells were stained for 1 h with Direct red 80 (Sigma Aldrich, St. Louis, MO, USA) dissolved in saturated aqueous picric acid solution at a concentration of 1 mg/mL, while gently shaking the plate on a microplate shaker. The dye was removed and the cells were washed with a 0.01 M hydrochloric acid solution to remove unbound dye. The cells were photographed with a light microscope. The dye was then dissolved in 0.1 M sodium hydroxide for 30 min by shaking the plate on a microplate shaker at room temperature. The solution was transferred to a new plate and a spectrophotometric analysis was performed at 550 nm, using 0.1 N sodium hydroxide as a blank. […]

Series [3] has as its system HaCaT keratinocytes. In words: XTT proliferation assay, keratinocytes. The series is classed as cell-based, human. The note with it: for increase in proliferation by fibrils compared to control (XTT): fibrillated form, 10 µL of fibrils (50 µg/mL), 48 h, not statistically significant; for stimulation of proliferation (XTT), in words / inhibition of proliferation (XTT), in words: non-fibrillated peptide, 48 and 72 h; for inhibition of proliferation (XTT), in words: up to 25 µg/mL. How it is done: (§1) Immortalized human HaCaT [69, 70] keratinocytes (DKFZ, Heidelberg, Germany) and the human dermal fibroblast cell line 46BR.1N (ECACC, Sigma Aldrich, St. Louis, MO, USA) were used in the study. Cells were routinely grown in culture flasks (growth surface area 25 cm^2) in Dulbecco’s modified Eagle medium (DMEM, Sigma Aldrich, St. Louis, MO, USA), with 4500 mg/L of glucose, 584 mg/L of L-glutamine, sodium pyruvate, and sodium bicarbonate, supplemented with 10% FBS and 100 units/mL of penicillin and 100 μg/mL of streptomycin (Sigma Aldrich, St. Louis, MO, USA), under a humidified atmosphere with 5% CO2 at 37 °C. Medium was changed every 2–3 days.
(§2) Lactate dehydrogenase (LDH) activity in cell culture supernatants (Takara, Japan, cat. No. MK401) was measured to determine the cytotoxicity of the tested compounds, and the XTT assay was used to evaluate their effect on cell proliferation. Both tests were performed as previously described according to manufacturers’ instructions. Briefly, cells were seeded into 96-well plates, at a density of 5000 cells per well, in DMEM supplemented with 10% FBS. After 24 h the medium was exchanged for serum-free DMEM containing appropriate concentrations of the tested compounds. Supernatants for LDH analysis were collected after 48 h of incubation. The XTT assay was performed after 48 and 72 h of incubation.
(§3) For the analysis of the effect of the peptide fibrils on skin cells, the experiment was performed as described, but the cells were stimulated with 10 µL of the fibrils (50 µg/mL) and incubated for 48 h, when the LDH and XTT assay were then performed.
On the technique in general: Tetrazolium dyes change colour on reduction, which living cells bring about.

Series [4] deals with T1, human neutrophil elastase (Homo sapiens, UniProt P08246).
T1 construct: purchased Sigma Aldrich
T1 sequence (P08246 30-267): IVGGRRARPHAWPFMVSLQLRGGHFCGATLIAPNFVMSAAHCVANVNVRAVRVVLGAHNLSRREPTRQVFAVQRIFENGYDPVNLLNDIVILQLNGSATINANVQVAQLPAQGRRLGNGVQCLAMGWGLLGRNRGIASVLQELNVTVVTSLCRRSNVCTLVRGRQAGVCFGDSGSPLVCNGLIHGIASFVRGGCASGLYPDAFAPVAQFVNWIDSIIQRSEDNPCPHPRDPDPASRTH
In words: Incubation with neutrophil elastase (release of active sequence). The class given is in vitro ADME. The note with it: non-fibrillated peptide 1.0 mM, 0.1 M Tris HCl, 500 mM NaCl, 0.05% Triton X-100, 20 mM CaCl2, pH 7.5; enzyme 150 nM; 30 min, 37 °C; RP-UHPLC (PDA) and LC-MS. The method, then: An enzymatic stability study was performed using the human neutrophil elastase enzyme (Sigma Aldrich, St. Louis, MO, USA). The peptides were dissolved in a buffer (with composition: 0.1 M Tris HCl, 500 mM NaCl, 0.05% Triton X-100, 20 mM CaCl2, pH 7.5), to a final concentration 1.0 mM. The fibrils formed in the aggregation process were dissolved in PBS at pH 7.4 to a concentration of 1 mg/mL. The enzyme was added to the peptide/fibril solution to a concentration of 150 nM and incubated for 30 min (peptides) or 60 min (fibrils), at 37 °C, with agitation. A 10% aqueous TFA solution was added to the reaction mixture to stop the digestion. The progress of the reaction was monitored by RP-UHPLC with a PDA (Photo Diode Array) detector on a Kinetex C8 column (2.6 μm, 100 Å 2.6 × 100 mm, Phenomenex, Torrance, CA, USA), at a gradient of 0–50% B for 15 min, and by LC-MS.

The test system of series [5] is 46BR.1N fibroblasts. In words: XTT proliferation assay, fibroblasts. The class given is cell-based, human. The note with it: for increase in proliferation by fibrils compared to control (XTT): fibrillated form, 10 µL of fibrils (50 µg/mL), 48 h, three independent experiments; for stimulation of proliferation (XTT), in words / inhibition of proliferation (XTT), in words: non-fibrillated peptide, 48 and 72 h; for inhibition of proliferation (XTT), in words: up to 25 µg/mL. How it is done: as §1, §2, §3

On to `CC[C@H](C)[C@H](NC(=O)CNC(=O)[C@H](C)NC(=O)[C@H](CCC(N)=O)NC(=O)CNC(=O)CNC(=O)CNC(=O)[C@@H](NC(=O)[C@@H]1CCCN1C(=O)[C@H](C)NC(=O)[C@H](C)NC(=O)CNC(=O)CNC(=O)CNC(=O)[C@H](CCCCN)NC(=O)[C@H](Cc1c[nH]cn1)NC(=O)CNC(=O)[C@H](CCCCN)NC(C)=O)C(C)C)C(=O)N[C@H](C(=O)N[C@H](C(N)=O)C(C)C)C(C)C` [FC-KGHK] (Ac-KGHKGGGAAPVGGGQAGIVV-NH2), for which the metabolised at 24 h, 1 mg/mL in series [1] was found to be 20%. Further, the “increase in collagen synthesis” value in series [2] was found to be 40%. For the same compound, in series [3], the “increase in proliferation by fibrils compared to control (XTT)” value (shortened to “increase in proliferation by fibrils”) is given as “about 10%”; the “stimulation of proliferation (XTT), in words” value (shortened to “stimulation of proliferation”) was “most potent stimulation was observed at concentrations of 1.0 µg/mL after 48 h and 0.1 µg/mL after 72 h incubation”; the “inhibition of proliferation (XTT), in words” value (“inhibition of proliferation” for short) is “did not inhibit the proliferation of skin cells”. Further, in series [4], the “Degradation Yes/No by human neutrophil elastase” value is on record as “Yes”. In series [5], the “increase in proliferation by fibrils” value is recorded as ~20%; the “stimulation of proliferation” value is “strongest stimulation was observed for 46BR.1N fibroblasts in concentrations of 0.1–10 µg/mL after 72 h of incubation”; the “inhibition of proliferation” value was “did not inhibit the proliferation of skin cells”.

`CC[C@H](C)[C@H](NC(=O)CNC(=O)[C@H](C)NC(=O)[C@H](CCC(N)=O)NC(=O)CNC(=O)CNC(=O)CNC(=O)[C@@H](NC(=O)[C@@H]1CCCN1C(=O)[C@H](C)NC(=O)[C@H](C)NC(=O)CNC(=O)CNC(=O)CNC(=O)[C@H](CCCCN)NC(=O)[C@H](Cc1c[nH]cn1)NC(=O)CNC(C)=O)C(C)C)C(=O)N[C@H](C(=O)N[C@H](C(N)=O)C(C)C)C(C)C` [FC-GHK] (Ac-GHKGGGAAPVGGGQAGIVV-NH2): in series [1], the metabolised at 24 h, 1 mg/mL turned out to be 20%. The “increase in collagen synthesis” value in series [2] is given as 30%. Besides, in series [3], the “increase in proliferation by fibrils” value was “about 10%”; the “stimulation of proliferation” value is “stimulated proliferation of both tested cell lines at concentrations of 0.01–10 µg/L”; the “inhibition of proliferation” value is given as “slight inhibition of the proliferation of skin cells after 72 h stimulation”. Further, in series [4], the “Degradation Yes/No by human neutrophil elastase” value is on record as “Yes”. Moreover, in series [5], the “increase in proliferation by fibrils” value was “about 10%”; the “stimulation of proliferation” value is reported as “stimulated proliferation of both tested cell lines at concentrations of 0.01–10 µg/L”; the “inhibition of proliferation” value was “slight inhibition of the proliferation of skin cells after 72 h stimulation”.
